Results from patent US20250051344A1, “BIFUNCTIONAL SELECTIVE DEGRADERS OF SMARCA2 AND THERAPEUTIC USES THEREOF” (Nurix Therapeutics, Inc., priority 2023, published 2025).

Columns and labels:
SMARCA2 = molecular target: T1, SMARCA2 (Homo sapiens, UniProt P51531); experiment: SMARCA2 Cellular Degradation Assay (Western blot analysis on Jess platform); format: cell-based; settings: for DC50 / Dmax: cellular degradation; for Fold Selectivity SMARCA4/2: ratio DC50 SMARCA4 / DC50 SMARCA2
T1 construct: endogenous in cells
Method in brief: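 Lysates of cells extracted from tumors, 5 μg total protein per capillary, were probed for SMARCA2 and β-actin by capillary Western on Jess using chemiluminescence and fluorescence detection. SMARCA2 peak area was background-subtracted and normalized to actin, then expressed as % remaining relative to vehicle control.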

SMARCA4 = molecular target: T2, SMARCA4 (Homo sapiens, UniProt P51532); experiment: Cellular degradation assay, SMARCA4 (Table 1); format: cell-based
T2 construct: endogenous in cells
T2 sequence (P51532 whole entry, species assumed): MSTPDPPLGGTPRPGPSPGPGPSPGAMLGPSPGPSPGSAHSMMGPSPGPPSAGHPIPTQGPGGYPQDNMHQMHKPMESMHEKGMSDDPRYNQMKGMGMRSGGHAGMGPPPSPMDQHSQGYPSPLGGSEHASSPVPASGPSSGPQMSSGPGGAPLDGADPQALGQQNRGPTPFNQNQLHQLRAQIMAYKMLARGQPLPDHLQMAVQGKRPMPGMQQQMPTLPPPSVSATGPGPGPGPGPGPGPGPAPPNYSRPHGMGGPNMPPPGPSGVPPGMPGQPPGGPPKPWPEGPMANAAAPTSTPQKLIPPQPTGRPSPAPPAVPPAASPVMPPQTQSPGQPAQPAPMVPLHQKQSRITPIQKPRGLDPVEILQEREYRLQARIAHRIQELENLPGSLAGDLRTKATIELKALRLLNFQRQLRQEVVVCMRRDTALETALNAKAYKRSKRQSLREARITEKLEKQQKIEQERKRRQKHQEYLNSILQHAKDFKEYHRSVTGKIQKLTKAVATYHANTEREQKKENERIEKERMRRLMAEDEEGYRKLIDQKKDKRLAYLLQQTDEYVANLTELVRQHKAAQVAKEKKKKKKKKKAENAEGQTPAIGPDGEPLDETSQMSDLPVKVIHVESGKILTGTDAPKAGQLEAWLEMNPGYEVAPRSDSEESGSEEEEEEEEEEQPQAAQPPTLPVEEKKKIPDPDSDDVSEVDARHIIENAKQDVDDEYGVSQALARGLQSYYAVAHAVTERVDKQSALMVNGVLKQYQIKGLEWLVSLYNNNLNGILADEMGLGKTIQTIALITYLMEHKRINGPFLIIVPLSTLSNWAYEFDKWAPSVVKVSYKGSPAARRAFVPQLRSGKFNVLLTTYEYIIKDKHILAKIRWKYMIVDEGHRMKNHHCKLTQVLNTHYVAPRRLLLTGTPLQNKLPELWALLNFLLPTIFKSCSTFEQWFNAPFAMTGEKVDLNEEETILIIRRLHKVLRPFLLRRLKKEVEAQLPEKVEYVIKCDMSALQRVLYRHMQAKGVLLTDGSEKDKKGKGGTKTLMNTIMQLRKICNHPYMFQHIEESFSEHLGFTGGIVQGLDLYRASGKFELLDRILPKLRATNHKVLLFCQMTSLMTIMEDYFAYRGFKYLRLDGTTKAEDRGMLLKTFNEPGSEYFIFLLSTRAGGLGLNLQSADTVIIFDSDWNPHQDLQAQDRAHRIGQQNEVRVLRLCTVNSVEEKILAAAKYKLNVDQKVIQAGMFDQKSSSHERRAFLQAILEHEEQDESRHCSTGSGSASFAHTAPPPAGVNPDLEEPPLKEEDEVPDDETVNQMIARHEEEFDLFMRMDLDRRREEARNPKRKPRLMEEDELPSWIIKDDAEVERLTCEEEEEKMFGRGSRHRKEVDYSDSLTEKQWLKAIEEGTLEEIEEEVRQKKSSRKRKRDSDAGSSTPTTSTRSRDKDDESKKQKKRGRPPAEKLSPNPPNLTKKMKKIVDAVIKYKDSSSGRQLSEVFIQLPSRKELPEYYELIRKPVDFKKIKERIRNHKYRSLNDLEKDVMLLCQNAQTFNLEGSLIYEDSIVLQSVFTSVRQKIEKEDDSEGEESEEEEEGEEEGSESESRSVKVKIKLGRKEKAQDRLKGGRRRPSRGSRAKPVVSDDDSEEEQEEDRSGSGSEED

T1 sequence (P51531 whole entry, species assumed): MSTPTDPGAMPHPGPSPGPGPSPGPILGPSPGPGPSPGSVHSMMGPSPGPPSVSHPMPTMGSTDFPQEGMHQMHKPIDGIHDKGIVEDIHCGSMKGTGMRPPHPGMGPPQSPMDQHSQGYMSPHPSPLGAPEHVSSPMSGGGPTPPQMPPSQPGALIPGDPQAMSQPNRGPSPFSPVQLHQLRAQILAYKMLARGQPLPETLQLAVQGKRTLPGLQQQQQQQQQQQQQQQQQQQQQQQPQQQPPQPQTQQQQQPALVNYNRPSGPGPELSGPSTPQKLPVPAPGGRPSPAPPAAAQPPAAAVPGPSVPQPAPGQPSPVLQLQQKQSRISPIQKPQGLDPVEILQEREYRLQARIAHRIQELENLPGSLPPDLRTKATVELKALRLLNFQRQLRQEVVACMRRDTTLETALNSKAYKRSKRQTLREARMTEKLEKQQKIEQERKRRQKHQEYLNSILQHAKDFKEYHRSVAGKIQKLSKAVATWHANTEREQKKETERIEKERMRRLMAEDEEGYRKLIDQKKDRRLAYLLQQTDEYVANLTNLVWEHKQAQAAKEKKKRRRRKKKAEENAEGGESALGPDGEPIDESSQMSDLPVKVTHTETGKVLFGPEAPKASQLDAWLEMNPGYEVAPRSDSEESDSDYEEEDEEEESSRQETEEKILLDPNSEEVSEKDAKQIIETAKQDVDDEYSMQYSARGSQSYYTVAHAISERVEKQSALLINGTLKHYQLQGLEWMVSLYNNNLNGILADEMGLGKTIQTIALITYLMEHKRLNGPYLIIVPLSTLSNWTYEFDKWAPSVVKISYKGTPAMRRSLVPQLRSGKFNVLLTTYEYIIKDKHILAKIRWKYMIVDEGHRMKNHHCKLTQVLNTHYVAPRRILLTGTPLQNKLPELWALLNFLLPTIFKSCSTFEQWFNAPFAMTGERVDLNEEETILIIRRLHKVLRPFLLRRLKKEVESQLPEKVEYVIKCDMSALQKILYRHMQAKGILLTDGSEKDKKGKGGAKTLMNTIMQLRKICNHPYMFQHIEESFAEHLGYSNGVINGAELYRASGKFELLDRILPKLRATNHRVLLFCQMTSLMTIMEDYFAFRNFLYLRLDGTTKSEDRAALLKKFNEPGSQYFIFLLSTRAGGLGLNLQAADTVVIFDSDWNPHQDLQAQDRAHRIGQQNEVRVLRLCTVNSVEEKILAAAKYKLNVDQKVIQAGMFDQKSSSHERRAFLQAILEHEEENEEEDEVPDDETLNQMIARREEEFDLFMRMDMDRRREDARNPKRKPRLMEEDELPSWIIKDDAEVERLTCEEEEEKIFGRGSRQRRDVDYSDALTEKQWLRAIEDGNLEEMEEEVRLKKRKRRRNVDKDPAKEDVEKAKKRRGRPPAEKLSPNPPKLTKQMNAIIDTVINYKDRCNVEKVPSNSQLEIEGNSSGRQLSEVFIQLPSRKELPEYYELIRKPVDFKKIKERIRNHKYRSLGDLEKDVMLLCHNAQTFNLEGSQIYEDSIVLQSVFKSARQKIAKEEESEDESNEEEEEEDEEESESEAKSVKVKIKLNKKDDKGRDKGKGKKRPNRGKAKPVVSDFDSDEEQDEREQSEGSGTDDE

Cc1ccnn1C1(C(=O)N(C)C2CCN(CCC3CCN(c4ccc([C@H]5CCC(=O)NC5=O)cc4)CC3)CC2)CCN(c2cnnc(-c3ccccc3O)c2)CC1 (racemic) [Example 78, rac-N-{1-[2-(1-{4-[(3R)-2,6-dioxopiperidin-3-yl]phenyl}piperidin-4-yl)ethyl]piperidin-4-yl}-1-[6-(2-hydroxyphenyl)pyridazin-4-yl]-N-methyl-4-(5-methyl-1H-pyrazol-1-yl)piperidine-4-carboxamide]
DC50 (SMARCA2): 5.1 nM
Dmax (SMARCA2): 85.8%
Fold Selectivity SMARCA4/2 (SMARCA2): 1961
Dmax (SMARCA4): 37.4%

CN(C(=O)C1(c2ccnn2C)CCN(c2cnnc(-c3ccccc3O)c2)CC1)C1CCN(CCC2CCN(c3ccc(C4CCC(=O)NC4=O)cc3)CC2)CC1 (racemic) [Example 87, rac-N-{1-[2-(1-{4-[(3r)-2,6-dioxopiperidin-3-yl]phenyl}piperidin-4-yl)ethyl]piperidin-4-yl}-1-[6-(2-hydroxyphenyl)pyridazin-4-yl]-N-methyl-4-(1-methyl-1H-pyrazol-5-yl)piperidine-4-carboxamide]
DC50 (SMARCA2): 2.79 nM
Dmax (SMARCA2): 87.7%
Fold Selectivity SMARCA4/2 (SMARCA2): 3583
Dmax (SMARCA4): 22.5%

COCCN(CC1(c2ccccc2)CCN(c2cnnc(-c3ccccc3O)c2)CC1)C(=O)C1CCN(CCC2CCN(c3ccc([C@@H]4CCC(=O)NC4=O)cc3)CC2)CC1 (racemic) [Example 145, rac-(r)-1-(2-(1-(4-(2,6-dioxopiperidin-3-yl)phenyl)piperidin-4-yl)ethyl)-n-((1-(6-(2-hydroxyphenyl)pyridazin-4-yl)-4-phenylpiperidin-4-yl)methyl)-n-(2-methoxyethyl)piperidine-4-carboxamide]
DC50 (SMARCA2): 1.69 nM
Dmax (SMARCA2): 92.8%
Fold Selectivity SMARCA4/2 (SMARCA2): 6
DC50 (SMARCA4): 9.67 nM
Dmax (SMARCA4): 84.5%

Cc1cc(C2(C(=O)N(C)C3CCN(CCC4CCN(c5ccc(C6CCC(=O)NC6=O)c(F)c5)CC4)CC3)CCN(c3cnnc(-c4ccccc4O)c3)CC2)on1 (racemic) [Example 60, rac-N-{1-[2-(1-{4-[(3R)-2,6-dioxopiperidin-3-yl]-3-fluorophenyl}piperidin-4-yl)ethyl]piperidin-4-yl}-1-[6-(2-hydroxyphenyl)pyridazin-4-yl]-N-methyl-4-(3-methyl-1,2-oxazol-5-yl)piperidine-4-carboxamide]
DC50 (SMARCA2): 3.79 nM
Dmax (SMARCA2): 85.7%
Fold Selectivity SMARCA4/2 (SMARCA2): 2639
Dmax (SMARCA4): 35.7%

CCCN(C(=O)C1(c2ccccc2)CCN(c2cnnc(-c3ccccc3O)c2)CC1)C1CCN(CCC2CCN(c3ccc([C@H]4CCC(=O)NC4=O)cc3)CC2)CC1 [Example 100, N-{1-[2-(1-{4-[(3R)-2,6-dioxopiperidin-3-yl]phenyl}piperidin-4-yl)ethyl]piperidin-4-yl}-1-[6-(2-hydroxyphenyl)pyridazin-4-yl]-4-phenyl-n-propylpiperidine-4-carboxamide]
DC50 (SMARCA2): 3.4 nM
Dmax (SMARCA2): 92.4%
Fold Selectivity SMARCA4/2 (SMARCA2): 34
DC50 (SMARCA4): 115 nM
Dmax (SMARCA4): 66.4%

O=C1CCC(c2ccc(N3CCC(CNC4CCN(C(=O)C5(c6ccccc6)CCN(c6cnnc(-c7ccccc7O)c6)CC5)CC4)CC3)cc2)C(=O)N1 (racemic) [Example 7, rac-(3R)-3-[4-(4-{[(1-{1-[6-(2-hydroxyphenyl)pyridazin-4-yl]-4-phenylpiperidine-4-carbonyl}piperidin-4-yl)amino]methyl}piperidin-1-yl)phenyl]piperidine-2,6-dione]
Dmax (SMARCA2): 53.1%
Fold Selectivity SMARCA4/2 (SMARCA2): 1
Dmax (SMARCA4): 32%

COc1ccccc1C1(C(=O)N(C)C2CCN(CCC3CCN(c4ccc([C@H]5CCC(=O)NC5=O)c(F)c4)CC3)CC2)CCN(c2cnnc(-c3ccccc3O)c2)CC1 [Example 85, N-{1-[2-(1-{4-[(3R)-2,6-dioxopiperidin-3-yl]-3-fluorophenyl}piperidin-4-yl)ethyl]piperidin-4-yl}-1-[6-(2-hydroxyphenyl)pyridazin-4-yl]-4-(2-methoxyphenyl)-N-methylpiperidine-4-carboxamide]
DC50 (SMARCA2): 8.19 nM
Dmax (SMARCA2): 90.9%
Fold Selectivity SMARCA4/2 (SMARCA2): 1220
Dmax (SMARCA4): 41.9%

CCN(C(=O)C1(c2ccccc2)CCN(c2cnnc(-c3ccccc3O)c2)CC1)C1CCN(CCC2CCN(c3ccc([C@H]4CCC(=O)NC4=O)cc3)CC2)CC1 [Example 187, N-{1-[2-(1-{4-[(3R)-2,6-dioxopiperidin-3-yl]phenyl}piperidin-4-yl)ethyl]piperidin-4-yl}-n-ethyl-1-[6-(2-hydroxyphenyl)pyridazin-4-yl]-4-phenylpiperidine-4-carboxamide]
DC50 (SMARCA2): 1.3 nM
Dmax (SMARCA2): 94.4%
Fold Selectivity SMARCA4/2 (SMARCA2): 27
DC50 (SMARCA4): 34.5 nM
Dmax (SMARCA4): 73.1%

CN(C(=O)C1(Oc2ccccc2Cl)CCN(c2cnnc(-c3ccccc3O)c2)CC1)C1CCN(C(=O)CN2CCC(c3ccc([C@@H]4CCC(=O)NC4=O)cc3)CC2)CC1 (racemic) [Example 112]
DC50 (SMARCA2): 4.19 nM
Dmax (SMARCA2): 92%
Fold Selectivity SMARCA4/2 (SMARCA2): 5
DC50 (SMARCA4): 20.8 nM
Dmax (SMARCA4): 87.7%

O=C1CC[C@H](c2ccc(N3CCC(C(=O)N4CCC5(CC4)CN(CC4(c6ccccc6)CCN(c6cnnc(-c7ccccc7O)c6)CC4)C5)CC3)cc2)C(=O)N1 [Example 164, (3R)-3-(4-{4-[2-({1-[6-(2-hydroxyphenyl)pyridazin-4-yl]-4-phenylpiperidin-4-yl}methyl)-2,7-diazaspiro[3.5]nonane-7-carbonyl]piperidin-1-yl}phenyl)piperidine-2,6-dione]
DC50 (SMARCA2): 2.16 nM
Dmax (SMARCA2): 85%
Fold Selectivity SMARCA4/2 (SMARCA2): 2
DC50 (SMARCA4): 3.77 nM
Dmax (SMARCA4): 86.6%

O=C1CCC(c2ccc(N3CCC4(CC3)COC(CN3CC5(CCN(C(=O)C6(c7ccccc7)CCN(c7cnnc(-c8ccccc8O)c7)CC6)CC5)C3)C4)cc2)C(=O)N1 (racemic) [Example 127, rac-(3R)-3-(4-{3-[(7-{1-[6-(2-hydroxyphenyl)pyridazin-4-yl]-4-phenylpiperidine-4-carbonyl}-2,7-diazaspiro[3.5]nonan-2-yl)methyl]-2-oxa-8-azaspiro[4.5]decan-8-yl}phenyl)piperidine-2,6-dione]
DC50 (SMARCA2): 32 nM
Dmax (SMARCA2): 64.2%
Fold Selectivity SMARCA4/2 (SMARCA2): 312
Dmax (SMARCA4): 56.1%

O=C1CC[C@H](c2ccc(N3CCC(CCN4CCC(Oc5ccccc5)(C(=O)NCC5(c6ccccc6)CCN(c6cnnc(-c7ccccc7O)c6)CC5)CC4)CC3)cc2)C(=O)N1 (racemic) [Example 103, rac-(r)-1-(2-(1-(4-(2,6-dioxopiperidin-3-yl)phenyl)piperidin-4-yl)ethyl)-n-((1-(6-(2-hydroxyphenyl)pyridazin-4-yl)-4-phenylpiperidin-4-yl)methyl)-4-phenoxypiperidine-4-carboxamide]
DC50 (SMARCA2): 15.7 nM
Dmax (SMARCA2): 87.4%
Fold Selectivity SMARCA4/2 (SMARCA2): 8
DC50 (SMARCA4): 129 nM
Dmax (SMARCA4): 68.4%

O=C1CC[C@H](c2ccc(N3CCC(CN4CCN(C(=O)C5(c6ccccc6)CCN(c6cnnc(-c7ccccc7O)c6)CC5)CCC4C(F)(F)F)CC3)cc2)C(=O)N1 (stereo partly drawn) [Example 53, (3R)-3-(4-(4-((4-(1-(6-(2-hydroxyphenyl)pyridazin-4-yl)-4-phenylpiperidine-4-carbonyl)-7-(trifluoromethyl)-1,4-diazepan-1-yl)methyl)piperidin-1-yl)phenyl)piperidine-2,6-dione]
Dmax (SMARCA2): 47.2%
Fold Selectivity SMARCA4/2 (SMARCA2): 1
Dmax (SMARCA4): 9.06%

O=C1CC[C@H](c2ccc(N3CCC(CNC4CCN(C(=O)C5(Oc6ccccc6)CCN(c6cnnc(-c7ccccc7O)c6)CC5)CC4)CC3)cc2)C(=O)N1 [Example 180, (3R)-3-[4-(4-{[(1-{1-[6-(2-hydroxyphenyl)pyridazin-4-yl]-4-phenoxypiperidine-4-carbonyl}piperidin-4-yl)amino]methyl}piperidin-1-yl)phenyl]piperidine-2,6-dione]
DC50 (SMARCA2): 13.3 nM
Dmax (SMARCA2): 77.2%
Fold Selectivity SMARCA4/2 (SMARCA2): 754
Dmax (SMARCA4): 46.2%

O=C1CCC(c2ccc(OCC3CCN(C(=O)C4(c5ccccc5)CCN(c5cnnc(-c6ccccc6O)c5)CC4)CC3)cc2)C(=O)N1 (racemic) [Example 5, rac-(3R)-3-{4-[(1-{1-[6-(2-hydroxyphenyl)pyridazin-4-yl]-4-phenylpiperidine-4-carbonyl}piperidin-4-yl)methoxy]phenyl}piperidine-2,6-dione]
DC50 (SMARCA2): 463 nM
Dmax (SMARCA2): 59.8%
Fold Selectivity SMARCA4/2 (SMARCA2): 21.62
Dmax (SMARCA4): 22.6%

COc1ccccc1C1(C(=O)N(C)C2CCN(CC3CCN(c4ccc([C@H]5CCC(=O)NC5=O)cc4)CC3)CC2)CCN(c2cnnc(-c3ccccc3O)c2)CC1 [Example 133, N-{1-[(1-{4-[(3R)-2,6-dioxopiperidin-3-yl]phenyl}piperidin-4-yl)methyl]piperidin-4-yl}-1-[6-(2-hydroxyphenyl)pyridazin-4-yl]-4-(2-methoxyphenyl)-n-methylpiperidine-4-carboxamide]
DC50 (SMARCA2): 2.5 nM
Dmax (SMARCA2): 90.5%
Fold Selectivity SMARCA4/2 (SMARCA2): 8
DC50 (SMARCA4): 20.5 nM
Dmax (SMARCA4): 74.8%

O=C1CCC(c2c(F)cc(N3CCC(CN4CCC5(CC4)CN(C(=O)C4(Oc6ccccc6)CCN(c6cnnc(-c7ccccc7O)c6)CC4)C5)CC3)cc2F)C(=O)N1 (racemic) [Example 136, rac-(3R)-3-(2,6-difluoro-4-{4-[(2-{1-[6-(2-hydroxyphenyl)pyridazin-4-yl]-4-phenoxypiperidine-4-carbonyl}-2,7-diazaspiro[3.5]nonan-7-yl)methyl]piperidin-1-yl}phenyl)piperidine-2,6-dione]
DC50 (SMARCA2): 2.1 nM
Dmax (SMARCA2): 94%
Fold Selectivity SMARCA4/2 (SMARCA2): 8
DC50 (SMARCA4): 17.8 nM
Dmax (SMARCA4): 84.2%
